In ChEMBL document CHEMBL1909046, “DrugMatrix in vitro pharmacology data”:

Columns and labels:
[1] = target: Beta-1 adrenergic receptor (Homo sapiens, UniProt P08588); assay: DRUGMATRIX: Adrenergic beta1 radioligand binding (ligand: [125I] Cyanopindolol); assay type: cell membranes, CHO-K1, Membrane; details: cho-k1; Not Active = under 50% inhibition at 10 µM
[2] = target: T1, Neuropeptide Y receptor type 2 (Homo sapiens, UniProt P49146); assay type: cell membranes, KAN-TS, Membrane; further: in other assays of this panel Not Active means under 50% inhibition at 10 µM
T1 sequence (P49146 whole entry): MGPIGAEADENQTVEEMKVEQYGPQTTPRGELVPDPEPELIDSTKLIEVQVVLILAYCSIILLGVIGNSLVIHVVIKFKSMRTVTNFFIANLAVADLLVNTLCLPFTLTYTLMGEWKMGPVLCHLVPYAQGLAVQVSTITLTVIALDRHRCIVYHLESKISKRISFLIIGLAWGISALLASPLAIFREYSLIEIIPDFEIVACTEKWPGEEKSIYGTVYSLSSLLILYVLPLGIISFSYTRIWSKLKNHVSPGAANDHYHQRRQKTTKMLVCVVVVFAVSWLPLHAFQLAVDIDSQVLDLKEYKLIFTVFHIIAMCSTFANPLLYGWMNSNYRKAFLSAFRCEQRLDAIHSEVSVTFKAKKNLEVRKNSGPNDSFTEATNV

[3] = DRUGMATRIX: Sigma2 radioligand binding (ligand: [3H] Ifenprodil); assay type: cell membranes, Rattus norvegicus, Wistar, Brain, Membrane; details: Not Active = under 50% inhibition at 10 µM
[4] = target: Aldo-keto reductase family 1 member B1 (Rattus norvegicus, UniProt P07943); assay type: tissue-based, Lens of camera-type eye;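 further: inhibition of aldose reductase enzyme activity, measured with DL-glyceraldehyde as the substrate; in other assays of this panel Not Active means under 50% inhibition at 10 µM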
[5] = target: T2, Neuropeptide Y receptor type 1 (Homo sapiens, UniProt P25929); assay type: cell membranes, Membrane; details: sk-n-mc; further: in other assays of this panel Not Active means under 50% inhibition at 10 µM
T2 sequence (P25929 whole entry): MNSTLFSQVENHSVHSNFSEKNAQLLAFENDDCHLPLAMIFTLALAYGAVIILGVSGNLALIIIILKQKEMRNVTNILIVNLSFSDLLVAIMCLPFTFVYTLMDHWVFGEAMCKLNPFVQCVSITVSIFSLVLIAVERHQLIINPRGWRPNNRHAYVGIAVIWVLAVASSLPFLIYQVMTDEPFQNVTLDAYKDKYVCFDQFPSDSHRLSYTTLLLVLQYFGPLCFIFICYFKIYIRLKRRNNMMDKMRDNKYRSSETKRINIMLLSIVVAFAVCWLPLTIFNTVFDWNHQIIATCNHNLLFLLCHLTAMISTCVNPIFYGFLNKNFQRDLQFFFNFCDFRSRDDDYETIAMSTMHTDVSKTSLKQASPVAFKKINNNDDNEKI

[6] = target: Tyrosine-protein kinase Fyn (Homo sapiens, UniProt P06241); assay: biochemical; assay type: cell-based, Insect cells;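 further: enzymatic inhibition of Fyn kinase activity measured with Poly(Glu:Tyr) as the phosphorylation substrate; in other assays of this panel Not Active means under 50% inhibition at 10 µM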
Chain of Tyrosine-protein kinase Fyn (P06241 whole entry): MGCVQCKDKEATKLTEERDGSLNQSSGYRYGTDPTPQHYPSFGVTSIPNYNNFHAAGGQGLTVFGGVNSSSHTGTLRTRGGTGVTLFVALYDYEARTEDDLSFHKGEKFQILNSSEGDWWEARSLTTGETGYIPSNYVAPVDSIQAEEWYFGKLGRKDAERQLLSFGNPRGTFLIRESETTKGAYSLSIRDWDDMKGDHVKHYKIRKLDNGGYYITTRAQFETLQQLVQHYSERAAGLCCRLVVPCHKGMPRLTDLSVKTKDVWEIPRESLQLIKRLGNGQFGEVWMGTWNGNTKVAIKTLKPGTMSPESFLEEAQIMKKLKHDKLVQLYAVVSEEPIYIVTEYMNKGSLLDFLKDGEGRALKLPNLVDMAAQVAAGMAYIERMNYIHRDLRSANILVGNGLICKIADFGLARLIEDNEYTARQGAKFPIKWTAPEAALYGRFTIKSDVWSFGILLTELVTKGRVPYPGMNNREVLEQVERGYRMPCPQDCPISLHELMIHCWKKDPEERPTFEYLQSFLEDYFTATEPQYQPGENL

Cytochrome P450 2C19 = Cytochrome P450 2C19 (Homo sapiens, UniProt P33261); details: bti-tn-5b1-4; further: in other assays of this panel Not Active means under 50% inhibition at 10 µM
Chain of Cytochrome P450 2C19 (P33261 whole entry): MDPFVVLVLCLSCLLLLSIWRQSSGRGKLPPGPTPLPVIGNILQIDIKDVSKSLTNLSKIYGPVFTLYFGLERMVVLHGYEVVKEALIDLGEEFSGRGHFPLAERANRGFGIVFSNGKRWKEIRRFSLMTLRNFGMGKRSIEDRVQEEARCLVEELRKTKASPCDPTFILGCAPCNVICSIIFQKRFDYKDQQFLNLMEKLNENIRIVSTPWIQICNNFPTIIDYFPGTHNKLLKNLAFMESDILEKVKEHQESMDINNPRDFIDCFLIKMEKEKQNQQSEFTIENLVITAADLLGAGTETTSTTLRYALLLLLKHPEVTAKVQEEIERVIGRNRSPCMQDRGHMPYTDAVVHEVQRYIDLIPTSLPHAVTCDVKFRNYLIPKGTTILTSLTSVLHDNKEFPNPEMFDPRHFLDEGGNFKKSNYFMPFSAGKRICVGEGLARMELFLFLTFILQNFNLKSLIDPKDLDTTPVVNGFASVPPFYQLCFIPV

Chain of Beta-1 adrenergic receptor (P08588 whole entry): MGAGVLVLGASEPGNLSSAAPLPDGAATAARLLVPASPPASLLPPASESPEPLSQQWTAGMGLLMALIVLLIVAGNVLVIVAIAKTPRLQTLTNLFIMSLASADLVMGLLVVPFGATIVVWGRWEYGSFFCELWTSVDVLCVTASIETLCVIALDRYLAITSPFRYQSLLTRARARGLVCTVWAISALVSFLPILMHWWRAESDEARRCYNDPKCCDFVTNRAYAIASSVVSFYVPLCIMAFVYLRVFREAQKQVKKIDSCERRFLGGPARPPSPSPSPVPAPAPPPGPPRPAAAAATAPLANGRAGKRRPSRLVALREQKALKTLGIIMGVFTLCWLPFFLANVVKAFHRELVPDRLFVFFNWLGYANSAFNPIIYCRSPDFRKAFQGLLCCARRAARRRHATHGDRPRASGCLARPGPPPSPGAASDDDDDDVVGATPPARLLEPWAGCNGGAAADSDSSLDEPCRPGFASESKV

Row | Compound | IC50 [1] | IC50 ([2]; kan-ts) | IC50 [3] | Ki [3] | IC50 [4] | IC50 [5] | IC50 ([6]; read-out: IC50) [nM] | IC50 ([3]; read-out: IC50) [µM] | Ki ([3]; read-out: Ki) [nM] | IC50 (Cytochrome P450 2C19) | Ki (Cytochrome P450 2C19) | IC50 ([6]; insect cells) | IC50 ([2]; read-out: IC50) [µM] | Ki ([2]; read-out: Ki) [µM]
1 | Cc1c(C)c2c(c(C)c1O)CCC(C)(CN1CCN(c3cc(N4CCCC4)nc(N4CCCC4)n3)CC1)O2 (stereo unspecified) | Not Active | Not Active | Not Active | Not Active | Not Active | Not Active | 1650 |  |  |  |  |  |  | 
2 | COc1ccc(CCN(C)CCCC(C#N)(c2ccc(OC)c(OC)c2)C(C)C)cc1OC (stereo unspecified) | Not Active | Not Active |  |  | Not Active | Not Active |  | 2.82 | 1740 | Not Active | Not Active | Not Active |  | 
3 | CC(C)Cc1ccc([C@@H](C)C(=O)O)cc1 [(R)-IBUPROPHEN] | Not Active | Not Active | Not Active | Not Active | Not Active | Not Active |  |  |  | Not Active | Not Active | Not Active |  | 
4 | CN(C)CCOC(c1ccccc1)c1ccccc1 [DIPHENHYDRAMINE] | Not Active | Not Active |  |  | Not Active | Not Active |  |  |  |  |  | Not Active |  | 
5 | Clc1ccc(COC(Cn2ccnc2)c2ccc(Cl)cc2Cl)cc1 (stereo unspecified) [ECONAZOLE] |  |  |  |  | Not Active | Not Active | 12100 |  |  |  |  |  | 20.1 | 11
6 | CCN(CC)CCOc1ccc(/C(=C(/Cl)c2ccccc2)c2ccccc2)cc1 [ENCLOMIPHENE] | Not Active | Not Active |  |  | Not Active | Not Active | 2510 |  |  | Not Active | Not Active |  |  | 
7 | Fc1ccc(C(c2ccc(F)cc2)N2CCN(C/C=C/c3ccccc3)CC2)cc1 [FLUNARIZINE] | Not Active | Not Active |  |  | Not Active | Not Active |  |  |  | Not Active | Not Active | Not Active |  | 
8 | CNCCC(Oc1ccc(C(F)(F)F)cc1)c1ccccc1 (stereo unspecified) [FLUOXETINE] | Not Active | Not Active |  |  | Not Active | Not Active |  |  |  | Not Active | Not Active | Not Active |  | 
9 | Cc1ccc(NC(=O)c2ccc(CN3CCN(C)CC3)cc2)cc1Nc1nccc(-c2cccnc2)n1 [IMATINIB] | Not Active | Not Active |  |  | Not Active | Not Active |  |  |  | Not Active | Not Active |  |  | 
10 | CC(C)Oc1ccc2c(=O)c(-c3ccccc3)coc2c1 [IPRIFLAVONE] | Not Active | Not Active | Not Active | Not Active | Not Active | Not Active |  |  |  | Not Active | Not Active | Not Active |  | 
11 | CC(C)NCC(O)c1ccc(O)c(O)c1 (stereo unspecified) [ISOPROTERENOL] |  | Not Active | Not Active | Not Active | Not Active | Not Active |  |  |  | Not Active | Not Active | Not Active |  | 
12 | CNC1(c2ccccc2Cl)CCCCC1=O (stereo unspecified) [KETAMINE] | Not Active | Not Active | Not Active | Not Active | Not Active | Not Active |  |  |  | Not Active | Not Active | Not Active |  | 
13 | N#Cc1ccc(C(c2ccc(C#N)cc2)n2cncn2)cc1 [LETROZOLE] | Not Active | Not Active | Not Active | Not Active | Not Active | Not Active |  |  |  | Not Active | Not Active | Not Active |  | 
14 | CCN1CCC[C@H]1CNC(=O)c1cc(S(N)(=O)=O)ccc1OC [LEVOSULPIRIDE] | Not Active | Not Active | Not Active | Not Active | Not Active | Not Active |  |  |  | Not Active | Not Active | Not Active |  | 
15 | CCN(CC)CC(=O)Nc1c(C)cccc1C [LIDOCAINE] | Not Active | Not Active | Not Active | Not Active | Not Active | Not Active |  |  |  |  |  | Not Active |  | 
16 | O=C1Nc2ccc(Cl)cc2C(c2ccccc2Cl)=NC1O (stereo unspecified) [LORAZEPAM] | Not Active | Not Active | Not Active | Not Active | Not Active | Not Active |  |  |  | Not Active | Not Active | Not Active |  | 
17 | CO[C@@H]1[C@@H](OC)[C@H](C)[C@@](O)(CC(=O)O)O[C@H]1[C@H](C)[C@H]1O[C@@]2(CC[C@@](C)([C@H]3CC[C@@](C)([C@@H]4O[C@@H]([C@H]5O[C@](C)(O)[C@H](C)C[C@@H]5C)C[C@@H]4O[C@@H]4C[C@H](OC)[C@@H](OC)[C@H](C)O4)O3)O2)C[C@H](O)[C@H]1C [MADURAMICIN ACID] | Not Active | Not Active | Not Active | Not Active | Not Active | Not Active |  |  |  | Not Active | Not Active | Not Active |  | 
18 | COc1c2occc2cc2ccc(=O)oc12 [METHOXSALEN] | Not Active | Not Active | Not Active | Not Active | Not Active | Not Active |  |  |  | Not Active | Not Active | Not Active |  | 
19 | C[C@H]1C[C@@H]2[C@H]([C@@H](O)C[C@@]3(C)[C@H]2CC[C@]3(O)C(=O)CO)[C@@]2(C)C=CC(=O)C=C12 [METHYLPREDNISOLONE] | Not Active | Not Active | Not Active | Not Active | Not Active | Not Active |  |  |  |  |  | Not Active |  | 
20 | Cc1cccc(C)c1OCC(C)N (stereo unspecified) [MEXILETINE] | Not Active | Not Active | Not Active | Not Active | Not Active | Not Active |  |  |  | Not Active | Not Active | Not Active |  | 
21 | Nc1cc(N2CCCCC2)nc(N)[n+]1[O-] [MINOXIDIL] | Not Active | Not Active | Not Active | Not Active | Not Active | Not Active |  |  |  | Not Active | Not Active | Not Active |  | 
22 | CO[C@H]1/C=C/O[C@@]2(C)Oc3c(C)c(O)c4c(O)c(c(/C=N/N5CCN(C6CCCC6)CC5)c(O)c4c3C2=O)NC(=O)/C(C)=C\C=C\[C@H](C)[C@H](O)[C@@H](C)[C@@H](O)[C@@H](C)[C@H](OC(C)=O)[C@@H]1C [RIFAPENTINE] | Not Active | Not Active | Not Active | Not Active | Not Active | Not Active |  |  |  | Not Active | Not Active | Not Active |  | 
23 | CN[C@H]1CC[C@@H](c2ccc(Cl)c(Cl)c2)c2ccccc21 [SERTRALINE] | Not Active | Not Active |  |  | Not Active | Not Active |  |  |  |  |  | Not Active |  | 
24 | CC(C)NCC(O)c1ccc(NS(C)(=O)=O)cc1 (stereo unspecified) [SOTALOL] |  | Not Active | Not Active | Not Active | Not Active | Not Active |  |  |  | Not Active | Not Active | Not Active |  | 
25 | CCCCNc1ccc(C(=O)OCCN(C)C)cc1 [TETRACAINE] | Not Active | Not Active | Not Active | Not Active | Not Active | Not Active |  |  |  |  |  | Not Active |  | 
26 | Clc1ccccc1CN1CCc2sccc2C1 [TICLOPIDINE] | Not Active | Not Active |  |  | Not Active | Not Active |  | 3.26 | 2010 |  |  | Not Active |  | 
